Assay results: patent US20150315188A1, “COMPOUNDS AND METHODS FOR TREATMENT OF HYPERTENSION” (MEDIVATION TECHNOLOGIES, INC., priority 2012, published 2015)

What follows are compounds tested against T1, Human adrenergic α2B receptor (Homo sapiens, UniProt P18089) (assay: β-Arrestin GPCR functional assay, adrenergic α2B (Protocol B)). Conditions: β-arrestin, antagonist vs nor-epinephrine EC80; read-out: IC50 Adrenergic α2B.
T1 sequence (P18089 1-450): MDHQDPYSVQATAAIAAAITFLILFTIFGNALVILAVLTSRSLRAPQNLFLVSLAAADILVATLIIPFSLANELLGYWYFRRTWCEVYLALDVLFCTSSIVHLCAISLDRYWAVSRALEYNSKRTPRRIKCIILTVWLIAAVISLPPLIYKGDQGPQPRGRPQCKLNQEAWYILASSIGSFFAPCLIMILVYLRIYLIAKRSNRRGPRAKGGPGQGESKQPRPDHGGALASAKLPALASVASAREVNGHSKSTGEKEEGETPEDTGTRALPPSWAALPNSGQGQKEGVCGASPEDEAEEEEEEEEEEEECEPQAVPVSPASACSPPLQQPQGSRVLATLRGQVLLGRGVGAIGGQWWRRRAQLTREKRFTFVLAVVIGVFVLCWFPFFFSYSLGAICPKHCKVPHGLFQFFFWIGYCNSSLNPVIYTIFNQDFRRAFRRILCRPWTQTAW
Format: cell-based
How it was run: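 CHO cells overexpressing human α2B (PathHunter β-arrestin), 12,000 per well, 24 h at 37° C; compounds in 1% DMSO 30 min, then 50 nM norepinephrine (EC80) 90 min at 37° C.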

| SMILES | IC50 [µM] |
| --- | --- |
| CC(O)(Cn1c2c(c3cc(F)ccc31)C1CCCN1CC2)c1ccncc1 (single isomer, unassigned) [31b] | 0.066 |
| Cc1cc(F)cc2c3c(n(CC(C)(O)c4cccnc4)c12)CCN1CCCC31 (single isomer, unassigned) [75a] | 0.017 |
| Cc1ccc2c(c1)c1c(n2CC(OCC2CCC2)c2ccncc2)CCN2CCCC12 (single isomer, unassigned) [138a] | 0.0172 |
| CCOC(Cn1c2c(c3cc(C)ccc31)CN(C)CC2)c1ccncc1 (single isomer, unassigned) [43b] | 0.091 |
| Cc1ccc2c(c1)c1c(n2CC(OC(=O)N2CCCC2)c2ccncc2)CCN(C)C1 (single isomer, unassigned) [4b] | 0.163 |
| CC(O)(Cn1c2c(c3cc(F)ccc31)C1CCCN1CC2)c1ccncc1 (single isomer, unassigned) [31a] | 0.087 |
| Cc1cc(F)c2c(c1)c1c(n2CC(C)(O)c2cccnc2)CCN2CCCC12 (stereo not drawn) [Compound No. 79a] | 0.012 |
| Cc1ccc2c(c1)c1c(n2CC(OCC2CCC2)c2ccncc2)CCN(C)C1 (single isomer, unassigned) [59a] | 0.067 |
| CCOC(Cn1c2c(c3cc(C)ccc31)CN(C)CC2)c1ccncc1 (single isomer, unassigned) [43a] | 0.119 |

Each compound was assayed against T2, Human adrenergic α2A receptor (Homo sapiens, UniProt P08913) (assay: Radioligand binding, adrenergic α2A (Protocol Group B)). Conditions: 0.1 μM compound; Protocol Group B; 0.1 µM.
T2 sequence (P08913 1-465): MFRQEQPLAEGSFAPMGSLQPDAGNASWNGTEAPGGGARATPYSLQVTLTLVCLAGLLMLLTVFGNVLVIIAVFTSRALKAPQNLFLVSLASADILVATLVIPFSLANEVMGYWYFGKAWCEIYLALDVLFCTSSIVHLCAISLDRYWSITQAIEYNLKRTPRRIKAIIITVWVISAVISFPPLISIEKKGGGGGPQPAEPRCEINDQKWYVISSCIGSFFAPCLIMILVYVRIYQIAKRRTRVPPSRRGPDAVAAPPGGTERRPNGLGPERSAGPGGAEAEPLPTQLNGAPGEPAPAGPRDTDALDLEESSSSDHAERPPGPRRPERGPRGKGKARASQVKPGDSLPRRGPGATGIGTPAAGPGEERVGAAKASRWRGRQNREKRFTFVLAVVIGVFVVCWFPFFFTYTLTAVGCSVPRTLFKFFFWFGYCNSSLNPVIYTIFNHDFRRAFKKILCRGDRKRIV
Design: purchased Milipore (Millipore)
How it was run: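 Membranes from recombinant cells expressing the receptor, in 50 mM Tris-HCl pH 7.4 with 5 mM MgCl2, 1 mM CaCl2, 0.2% BSA; compounds incubated with 2 nM [^3H]MK-912 for 60 min at 25° C. Nonspecific binding defined by 10 μM rauwolscine; filtration, counting; percent inhibition of specific binding, or estimated Ki.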

| SMILES | Percentage inhibition of ligand binding, Adrenergic α2A (0.1 μM) [%] |
| --- | --- |
| CC(O)(Cn1c2c(c3cc(F)ccc31)C1CCCN1CC2)c1ccncc1 (single isomer, unassigned) [31b] | 26 |
| Cc1cc(F)cc2c3c(n(CC(C)(O)c4cccnc4)c12)CCN1CCCC31 (single isomer, unassigned) [75a] | 3 |
| CCOC(Cn1c2c(c3cc(C)ccc31)CN(C)CC2)c1ccncc1 (single isomer, unassigned) [43b] | 14 |
| Cc1cc(F)c2c(c1)c1c(n2CC(C)(O)c2cccnc2)CCN2CCCC12 (stereo not drawn) [Compound No. 79a] | 81 |
| CCOC(Cn1c2c(c3cc(C)ccc31)CN(C)CC2)c1ccncc1 (single isomer, unassigned) [43a] | 46 |

Same assay, conditions: 0.1 μM compound; Protocol Group B; read-out: Percentage inhibition of ligand binding, Adrenergic α2A (0.1 μM)

| SMILES | inhibition at 0.1 µM [%] |
| --- | --- |
| Cc1ccc2c(c1)c1c(n2CC(OCC2CCC2)c2ccncc2)CCN2CCCC12 (single isomer, unassigned) [138a] | 91 |
| CC(O)(Cn1c2c(c3cc(F)ccc31)C1CCCN1CC2)c1ccncc1 (single isomer, unassigned) [31a] | 33 |
| Cc1ccc2c(c1)c1c(n2CC(OCC2CCC2)c2ccncc2)CCN(C)C1 (single isomer, unassigned) [59a] | 84 |

Same assay, conditions: 0.3 μM compound; Protocol Group B; 0.3 µM

| SMILES | Percentage inhibition of ligand binding, Adrenergic α2A (0.3 μM) [%] |
| --- | --- |
| CC(O)(Cn1c2c(c3cc(F)ccc31)C1CCCN1CC2)c1ccncc1 (single isomer, unassigned) [31b] | 38 |
| Cc1cc(F)cc2c3c(n(CC(C)(O)c4cccnc4)c12)CCN1CCCC31 (single isomer, unassigned) [75a] | 22 |
| CCOC(Cn1c2c(c3cc(C)ccc31)CN(C)CC2)c1ccncc1 (single isomer, unassigned) [43b] | 28 |
| Cc1cc(F)c2c(c1)c1c(n2CC(C)(O)c2cccnc2)CCN2CCCC12 (stereo not drawn) [Compound No. 79a] | 93 |
| CCOC(Cn1c2c(c3cc(C)ccc31)CN(C)CC2)c1ccncc1 (single isomer, unassigned) [43a] | 63 |

Same assay, conditions: 0.3 μM compound; Protocol Group B; read-out: Percentage inhibition of ligand binding, Adrenergic α2A (0.3 μM)

| SMILES | inhibition at 0.3 µM [%] |
| --- | --- |
| Cc1ccc2c(c1)c1c(n2CC(OCC2CCC2)c2ccncc2)CCN2CCCC12 (single isomer, unassigned) [138a] | 88 |
| CC(O)(Cn1c2c(c3cc(F)ccc31)C1CCCN1CC2)c1ccncc1 (single isomer, unassigned) [31a] | 48 |
| Cc1ccc2c(c1)c1c(n2CC(OCC2CCC2)c2ccncc2)CCN(C)C1 (single isomer, unassigned) [59a] | 91 |

Same assay, conditions: Protocol Group B; estimated Ki

| SMILES | Ki [µM] |
| --- | --- |
| CC(O)(Cn1c2c(c3cc(F)ccc31)C1CCCN1CC2)c1ccncc1 (single isomer, unassigned) [31b] | 0.362 |
| Cc1ccc2c(c1)c1c(n2CC(OCC2CCC2)c2ccncc2)CCN2CCCC12 (single isomer, unassigned) [138a] | 0.0022 |
| CCOC(Cn1c2c(c3cc(C)ccc31)CN(C)CC2)c1ccncc1 (single isomer, unassigned) [43b] | 0.374 |
| Cc1ccc2c(c1)c1c(n2CC(OC(=O)N2CCCC2)c2ccncc2)CCN(C)C1 (single isomer, unassigned) [4b] | 0.126 |
| CC(O)(Cn1c2c(c3cc(F)ccc31)C1CCCN1CC2)c1ccncc1 (single isomer, unassigned) [31a] | 0.279 |
| Cc1cc(F)c2c(c1)c1c(n2CC(C)(O)c2cccnc2)CCN2CCCC12 (stereo not drawn) [Compound No. 79a] | 0.0106 |
| Cc1ccc2c(c1)c1c(n2CC(OCC2CCC2)c2ccncc2)CCN(C)C1 (single isomer, unassigned) [59a] | 0.01 |
| CCOC(Cn1c2c(c3cc(C)ccc31)CN(C)CC2)c1ccncc1 (single isomer, unassigned) [43a] | 0.05 |

The compounds below were run against T3, Human adrenergic α1B receptor (Homo sapiens, UniProt P35368) (assay: Radioligand binding, adrenergic α1B (Protocol Group B)). Conditions: 0.1 μM compound; Protocol Group B; 0.1 µM.
T3 sequence (P35368 1-520): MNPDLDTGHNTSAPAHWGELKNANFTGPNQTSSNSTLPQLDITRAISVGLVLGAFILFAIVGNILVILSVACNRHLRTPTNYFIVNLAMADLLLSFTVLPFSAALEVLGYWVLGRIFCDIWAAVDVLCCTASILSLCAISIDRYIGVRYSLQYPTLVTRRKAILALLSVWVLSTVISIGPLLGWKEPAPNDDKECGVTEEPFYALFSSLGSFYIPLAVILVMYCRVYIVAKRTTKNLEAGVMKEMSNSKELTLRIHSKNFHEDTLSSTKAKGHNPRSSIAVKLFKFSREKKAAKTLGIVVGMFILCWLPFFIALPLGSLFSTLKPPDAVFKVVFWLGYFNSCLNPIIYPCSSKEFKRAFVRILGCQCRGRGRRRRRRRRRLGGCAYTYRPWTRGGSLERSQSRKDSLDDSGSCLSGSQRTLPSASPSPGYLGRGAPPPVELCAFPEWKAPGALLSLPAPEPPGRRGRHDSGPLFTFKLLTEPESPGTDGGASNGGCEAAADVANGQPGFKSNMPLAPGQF
Design: purchased Milipore (Millipore)
How it was run: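 Recombinant human α1B membranes incubated with test compound and 0.3 nM [3H]prazosin, 60 min at 25 °C, in 50 mM Tris-HCl pH 7.4, 10 mM MgCl2, 1 mM EDTA; nonspecific binding with 10 μM prazosin. Filter-bound radioactivity counted; values are % inhibition of specific binding or estimated Ki.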

| SMILES | Percentage inhibition of ligand binding, Adrenergic α1B (0.1 μM) [%] |
| --- | --- |
| CC(O)(Cn1c2c(c3cc(F)ccc31)C1CCCN1CC2)c1ccncc1 (single isomer, unassigned) [31b] | 30 |
| Cc1cc(F)cc2c3c(n(CC(C)(O)c4cccnc4)c12)CCN1CCCC31 (single isomer, unassigned) [75a] | −1 |
| Cc1ccc2c(c1)c1c(n2CC(OCC2CCC2)c2ccncc2)CCN2CCCC12 (single isomer, unassigned) [138a] | 84 |
| CCOC(Cn1c2c(c3cc(C)ccc31)CN(C)CC2)c1ccncc1 (single isomer, unassigned) [43b] | 14 |
| Cc1cc(F)c2c(c1)c1c(n2CC(C)(O)c2cccnc2)CCN2CCCC12 (stereo not drawn) [Compound No. 79a] | 47 |
| CCOC(Cn1c2c(c3cc(C)ccc31)CN(C)CC2)c1ccncc1 (single isomer, unassigned) [43a] | 29 |

Same assay, conditions: 0.1 μM compound; Protocol Group B; read-out: Percentage inhibition of ligand binding, Adrenergic α1B (0.1 μM)

| SMILES | inhibition at 0.1 µM [%] |
| --- | --- |
| CC(O)(Cn1c2c(c3cc(F)ccc31)C1CCCN1CC2)c1ccncc1 (single isomer, unassigned) [31a] | 24 |
| Cc1ccc2c(c1)c1c(n2CC(OCC2CCC2)c2ccncc2)CCN(C)C1 (single isomer, unassigned) [59a] | 69 |

Same assay, conditions: 0.3 μM compound; Protocol Group B; 0.3 µM

| SMILES | Percentage inhibition of ligand binding, Adrenergic α1B (0.3 μM) [%] |
| --- | --- |
| CC(O)(Cn1c2c(c3cc(F)ccc31)C1CCCN1CC2)c1ccncc1 (single isomer, unassigned) [31b] | 50 |
| Cc1cc(F)cc2c3c(n(CC(C)(O)c4cccnc4)c12)CCN1CCCC31 (single isomer, unassigned) [75a] | 12 |
| CCOC(Cn1c2c(c3cc(C)ccc31)CN(C)CC2)c1ccncc1 (single isomer, unassigned) [43b] | 30 |
| Cc1cc(F)c2c(c1)c1c(n2CC(C)(O)c2cccnc2)CCN2CCCC12 (stereo not drawn) [Compound No. 79a] | 79 |
| CCOC(Cn1c2c(c3cc(C)ccc31)CN(C)CC2)c1ccncc1 (single isomer, unassigned) [43a] | 55 |

Same assay, conditions: 0.3 μM compound; Protocol Group B; read-out: Percentage inhibition of ligand binding, Adrenergic α1B (0.3 μM)

| SMILES | inhibition at 0.3 µM [%] |
| --- | --- |
| Cc1ccc2c(c1)c1c(n2CC(OCC2CCC2)c2ccncc2)CCN2CCCC12 (single isomer, unassigned) [138a] | 88 |
| CC(O)(Cn1c2c(c3cc(F)ccc31)C1CCCN1CC2)c1ccncc1 (single isomer, unassigned) [31a] | 47 |
| Cc1ccc2c(c1)c1c(n2CC(OCC2CCC2)c2ccncc2)CCN(C)C1 (single isomer, unassigned) [59a] | 91 |

Same assay, conditions: Protocol Group B; estimated Ki

| SMILES | Ki [µM] |
| --- | --- |
| CC(O)(Cn1c2c(c3cc(F)ccc31)C1CCCN1CC2)c1ccncc1 (single isomer, unassigned) [31b] | 0.134 |
| Cc1ccc2c(c1)c1c(n2CC(OCC2CCC2)c2ccncc2)CCN2CCCC12 (single isomer, unassigned) [138a] | 0.0024 |
| CCOC(Cn1c2c(c3cc(C)ccc31)CN(C)CC2)c1ccncc1 (single isomer, unassigned) [43b] | 0.278 |
| Cc1ccc2c(c1)c1c(n2CC(OC(=O)N2CCCC2)c2ccncc2)CCN(C)C1 (single isomer, unassigned) [4b] | 0.269 |
| CC(O)(Cn1c2c(c3cc(F)ccc31)C1CCCN1CC2)c1ccncc1 (single isomer, unassigned) [31a] | 0.145 |
| Cc1cc(F)c2c(c1)c1c(n2CC(C)(O)c2cccnc2)CCN2CCCC12 (stereo not drawn) [Compound No. 79a] | 0.0427 |
| Cc1ccc2c(c1)c1c(n2CC(OCC2CCC2)c2ccncc2)CCN(C)C1 (single isomer, unassigned) [59a] | 0.016 |
| CCOC(Cn1c2c(c3cc(C)ccc31)CN(C)CC2)c1ccncc1 (single isomer, unassigned) [43a] | 0.111 |
